Measurements: patent US6375461B1 (Ultradent Products, Inc., priority 2000, dated 2002)
Read-outs that look alike come from different tables or passages of the source.

Legend:
[1] = mixed with ferric salts; cited from earlier work
[2] = tested on: heart rate and blood pressure; conditions: in vivo
[3] = tested on: heart rate and blood pressure; assay: Systemic effects (heart rate, blood pressure) of retraction cords packed into the gingival sulcus; conditions: retraction cords packed into a person's gingival sulcus
[4] = cited from earlier work
[5] = Reaction with iron-based astringents (ferric salts), formation of colored reaction products; format: physicochemical; conditions: mixed with astringent salts
[6] = tested on: gingival tissue; assay: Local effect on gingival tissue when used in gingival retraction cords; format: in vivo, patient

## CNC[C@H](O)c1ccc(O)c(O)c1 [epinephrine]
[1]
  colored reaction products with ferric salts (known): immediately form purple-colored reaction products
[2]
  systemic effects: heart rate and blood pressure: increase a patient's heart rate and blood pressure

## CNC(C)CC1CCCCC1 (stereo not drawn) [Propylhexedrine, N,α-dimethylcyclohexaneethylamine]
[3]
  systemic effects: heart rate and blood pressure: does not produce the systemic adrenal effects
[4]
  volume of water in which 1 gram is dissolvable: 500 mL
[5]
  colored reaction products with astringent salts including ferric salts: without forming colored reaction products
[6]; gingival tissue
  stiffening and retraction of gingival tissue: localized stiffening and retraction of gingival tissue
[6]; used in gingival retraction cords
  vasoconstricting effect: localized vasoconstricting effect
